Results published in article PMC5747364 (Science (New York, N.Y.), 2017).

Target: T1, SAMTOR (Homo sapiens, UniProt Q1RMZ1)
T1 sequence (Q1RMZ1 1-405): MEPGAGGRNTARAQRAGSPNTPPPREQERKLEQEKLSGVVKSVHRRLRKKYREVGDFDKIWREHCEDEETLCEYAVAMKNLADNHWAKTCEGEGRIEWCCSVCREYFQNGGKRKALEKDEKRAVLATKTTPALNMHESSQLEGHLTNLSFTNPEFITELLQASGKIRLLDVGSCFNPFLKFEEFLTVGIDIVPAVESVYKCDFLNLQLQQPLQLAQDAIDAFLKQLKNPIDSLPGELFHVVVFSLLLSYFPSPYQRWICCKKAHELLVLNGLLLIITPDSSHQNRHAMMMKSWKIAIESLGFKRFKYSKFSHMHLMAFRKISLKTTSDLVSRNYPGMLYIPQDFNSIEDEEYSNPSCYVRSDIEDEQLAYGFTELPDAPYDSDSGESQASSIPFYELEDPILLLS
Experiment: competition binding against [3H]SAM on purified FLAG-SAMTOR
Conditions: competitive with [3H]SAM

Compound: Nc1ncnc2c1ncn2[C@@H]1O[C@H](CSCC[C@H](N)C(=O)O)[C@@H](O)[C@H]1O [SAH]
- Ki: SAMTOR can also bind S-adenosylhomocysteine (SAH), the demethylated form of SAM
